Results taken from patent US9765381B2, “Mutated genes for the catalytic protein of oplophorus luciferase and use thereof” (JNC Corporation, priority 2013, dated 2017).

What was measured:
[1] = test system: pcDNA3-GLsp-nanoKAZ/CHO-K1 stable expressed cell line; assay: Secretory inhibition by brefeldin A, nanoKAZ with secretory signal peptide sequence; type: cell-based, Chinese hamster; conditions: brefeldin A 5 μg/mL, 0-6 hours, compared to absence of brefeldin A, FIG. 3
Procedure: (§1) Using the stable expressed cell lines established in EXAMPLE 14 and EXAMPLE 15, the effect of brefeldin A that inhibits exocytosis through the trans-Golgi network by the vesicle-mediated transport was compared. Specifically, each stable expressed cell lines with 2×10^5 cells were seeded to a 6-well plate in 3 mL of Ham's F-12 medium containing 10% FBS, respectively; followed by incubation at 37° C. in a 5% CO2 incubator for 48 hours. After washing twice with 3 mL of Ham's F-12 medium containing 10% FBS, brefeldin A (manufactured by Wako Pure Chemical Industries, Ltd.) was added to the culture medium at a final concentration of 5 μg/mL. As a control experiment, cells were cultured in the absence of brefeldin A. The luminescence activity in the culture medium was determined at each incubation times at 0, 1, 3 and 6 hours, using coelenterazine as a substrate.

[2] = test system: pcDNA3-nanoKAZ/CHO-K1 stable expressed cell line; assay: Secretory inhibition by brefeldin A, nanoKAZ without secretory signal peptide sequence; type: cell-based, Chinese hamster; conditions: brefeldin A 5 μg/mL, 0-6 hours, FIG. 4
Procedure: as §1

`C[C@H]1CCC/C=C/[C@@H]2C[C@H](O)C[C@H]2[C@H](O)/C=C/C(=O)O1` [brefeldin A] was tested, and the “secretion of nanoKAZ into the culture medium in the presence of brefeldin A” value [1] was “markedly inhibited” and the “secretion of nanoKAZ into the culture medium in the presence of brefeldin A” value [2] was “secreted”.
